# Experimental data reported in PubChem BioAssay (NCI).
#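 Five concentrations, 48 hours, 96-well plates. The concentration for full growth arrest is given as TGI.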
# Tests used:
# Assay in all cases: NCI anticancer screen, dose series, 48 h
# [1] = tested on: SK-MEL-28 melanoma
# [2] = tested on: UACC-257 melanoma
# [3] = tested on: HCT-116 colon
# [4] = tested on: OVCAR-5 ovarian
# [5] = tested on: SF-268 CNS
# [6] = tested on: A549 NSCLC
# [7] = tested on: T-47D breast
# [8] = tested on: NCI-H226 lung
# [9] = tested on: A498 renal
# [10] = tested on: OVCAR-4 ovarian
# [11] = tested on: SF-539 CNS
# [12] = tested on: COLO 205 colon
# [13] = tested on: NCI-H522 lung
# [14] = tested on: U251 CNS
# [15] = tested on: HS 578T breast
# [16] = tested on: HOP-62 NSCLC
# [17] = tested on: EKVX NSCLC
# [18] = tested on: MCF7 breast
# [19] = tested on: SW-620 colon
# [20] = tested on: MDA-MB-231 breast
# [21] = tested on: SK-MEL-5 melanoma
# [22] = tested on: HCT-15 colon
# [23] = tested on: RPMI-8226 leukemia
# [24] = tested on: UACC-62 melanoma
# [25] = tested on: OVCAR-3 ovarian
# [26] = tested on: KM12 colon
# [27] = tested on: LOX IMVI melanoma
# [28] = tested on: IGROV1 ovarian
# [29] = tested on: MALME-3M melanoma
# [30] = tested on: SNB-19 CNS
# [31] = tested on: NCI/ADR-RES ovarian
# [32] = tested on: MDA-MB-435
# [33] = tested on: NCI-H23 lung
# [34] = tested on: SK-OV-3 ovarian
# [35] = tested on: DU-145 prostate
# [36] = tested on: 786-0 renal
# [37] = tested on: HT29 colon
# [38] = tested on: OVCAR-8 ovarian
# [39] = tested on: SN12C renal
# [40] = tested on: HL-60(TB) leukemia
# [41] = tested on: K-562 leukemia
# [42] = tested on: CCRF-CEM leukemia
# [43] = tested on: ACHN renal
# [44] = tested on: PC-3 prostate
# [45] = tested on: SF-295 CNS
# [46] = tested on: RXF 393 renal
# [47] = tested on: HCC-2998 colon
# [48] = tested on: NCI-H460 lung
# [49] = tested on: CAKI-1 renal
# [50] = tested on: M14 melanoma
# [51] = tested on: SNB-75 CNS
# [52] = tested on: MDA-N
# [53] = tested on: TK-10 renal
# [54] = tested on: SR leukemia
# [55] = tested on: MOLT-4 leukemia
# [56] = tested on: HOP-92 NSCLC
# [57] = tested on: SK-MEL-2 melanoma
# [58] = tested on: UO-31 renal
smiles,measurement,setting,value
COc1ccc(NC(=O)CSc2nc(C)nc3c2sc(=S)n3-c2ccccc2)cc1,TGI,[1],> 10 µM
same,TGI,[2],> 10 µM
same,TGI,[3],> 10 µM
same,TGI,[4],> 10 µM
same,TGI,[5],> 10 µM
same,TGI,[6],> 10 µM
same,TGI,[7],> 10 µM
same,TGI,[8],> 10 µM
same,TGI,[9],> 10 µM
same,TGI,[10],9.29 µM
same,TGI,[11],4.97 µM
same,TGI,[12],> 10 µM
same,TGI,[13],> 10 µM
same,TGI,[14],> 10 µM
same,TGI,[15],> 10 µM
same,TGI,[16],> 10 µM
same,TGI,[17],> 10 µM
same,TGI,[18],> 10 µM
same,TGI,[19],> 10 µM
same,TGI,[20],> 10 µM
same,TGI,[21],> 10 µM
same,TGI,[22],> 10 µM
same,TGI,[23],> 10 µM
same,TGI,[24],> 10 µM
same,TGI,[25],> 10 µM
same,TGI,[26],> 10 µM
same,TGI,[27],> 10 µM
same,TGI,[28],> 10 µM
same,TGI,[29],> 10 µM
same,TGI,[30],> 10 µM
same,TGI,[31],> 10 µM
same,TGI,[32],> 10 µM
same,TGI,[33],> 10 µM
same,TGI,[34],> 10 µM
same,TGI,[35],> 10 µM
same,TGI,[36],> 10 µM
same,TGI,[37],> 10 µM
same,TGI,[38],> 10 µM
same,TGI,[39],> 10 µM
same,TGI,[40],> 10 µM
same,TGI,[41],> 10 µM
same,TGI,[42],> 10 µM
same,TGI,[43],> 10 µM
same,TGI,[44],> 10 µM
same,TGI,[45],> 10 µM
same,TGI,[46],> 10 µM
same,TGI,[47],> 10 µM
same,TGI,[48],> 10 µM
same,TGI,[49],> 10 µM
same,TGI,[50],> 10 µM
same,TGI,[51],8.21 µM
same,TGI,[52],> 10 µM
same,TGI,[53],> 10 µM
same,TGI,[54],> 10 µM
same,TGI,[55],> 10 µM
same,TGI,[56],> 10 µM
CC1(C)COC(c2cccc(C(O)c3ccc(Cl)cc3)c2)=N1 (centres undefined),TGI,[1],> 100 µM
same,TGI,[3],37.9 µM
same,TGI,[4],45.5 µM
same,TGI,[5],87.3 µM
same,TGI,[7],73.9 µM
same,TGI,[8],33.5 µM
same,TGI,[10],> 100 µM
same,TGI,[11],42.5 µM
same,TGI,[12],34 µM
same,TGI,[13],> 100 µM
same,TGI,[14],59.6 µM
same,TGI,[15],> 100 µM
same,TGI,[16],88.6 µM
same,TGI,[57],47.5 µM
same,TGI,[17],> 100 µM
same,TGI,[18],39.6 µM
same,TGI,[19],> 100 µM
same,TGI,[20],> 100 µM
same,TGI,[21],28.6 µM
same,TGI,[23],89.1 µM
same,TGI,[24],44.9 µM
same,TGI,[25],45.7 µM
same,TGI,[26],> 100 µM
same,TGI,[27],29.1 µM
same,TGI,[28],> 100 µM
same,TGI,[29],59.9 µM
same,TGI,[30],> 100 µM
same,TGI,[31],77.2 µM
same,TGI,[32],67.3 µM
same,TGI,[33],64.1 µM
same,TGI,[34],65.1 µM
same,TGI,[35],> 100 µM
same,TGI,[36],59.8 µM
same,TGI,[37],37.2 µM
same,TGI,[38],42.3 µM
same,TGI,[39],73.9 µM
same,TGI,[40],> 100 µM
same,TGI,[41],> 100 µM
same,TGI,[42],> 100 µM
same,TGI,[43],> 100 µM
same,TGI,[44],53.8 µM
same,TGI,[46],37.8 µM
same,TGI,[47],64.7 µM
same,TGI,[48],> 100 µM
same,TGI,[49],87.1 µM
same,TGI,[50],45.1 µM
same,TGI,[51],60.5 µM
same,TGI,[52],70 µM
same,TGI,[58],46.7 µM
same,TGI,[53],76.3 µM
same,TGI,[54],> 100 µM
same,TGI,[55],59.3 µM
same,TGI,[56],59 µM
